Test results: patent US11457629B2, “Heteroarylphenylaminoquinolines and analogues” (Bayer Aktiengesellschaft, priority 2017, dated 2022)
Like-named read-outs stand apart in the source and are kept apart here.

What was measured:
Leptnosphaeria nodorum [1] = experiment: Example D: Leptnosphaeria nodorum in vitro cell test; assay type: cell-based; settings: 144 h, read-out: efficacy (inhibition of fungal growth)
Pyricularia oryzae = experiment: microbe, parasite or virus in culture; assay type: cell-based; settings: 120 h, read-out: efficacy (inhibition of fungal growth)
[2] = tested on: Colletotrichum lindemuthianum; experiment: Example K: comparative data, in vivo preventive test on Colletotrichum lindemuthianum (antrachnose on bean); settings: rate of application 500 ppm, evaluated 6 days after inoculation
[3] = Log P by HPLC on reversed phase columns, method [a] (acidic range, 0.1% formic acid)
Experimental: In the following, measurement of Log P values was performed according to EEC directive 79/831 Annex V.A8 by HPLC (High Performance Liquid Chromatography) on reversed phase columns with the following methods: • ^[a]
If more than one Log P value is available within the same method, all the values are given and separated by “+”.
Calibration was done with straight-chain alkan2-ones (with 3 to 16 carbon atoms) with known Log P values (measurement of Log P values using retention times with linear interpolation between successive alkanones).

[4] = tested on: Colletotrichum lindemuthianum; experiment: Example F: Colletotrichum lindemuthianum in vitro cell test; assay type: cell-based; settings: 144 h, read-out: efficacy (inhibition of fungal growth)
Septoria tritici = experiment: Example L: comparative data, Septoria tritici in vitro cell test; assay type: cell-based; settings: rate of application 4 ppm; 7 days incubation
Experimental: Comparative Data—Septoria tritici In Vitro Cell Test Solvent: DMSOCulture medium: 14.6 g anhydrous D-glucose (VWR), 7.1 g Bacteriological Peptone (Oxoid), 1.4 g granulated Yeast Extract (Merck), QSP 1 literInoculum: spore suspension The compounds to be tested were solubilized in DMSO and the solution used to prepare the required range of concentrations. […] A spore suspension of S. tritici was prepared and diluted to the desired spore density. The tested compounds were evaluated for their ability to inhibit spore germination and mycelium growth in liquid culture assay. The compounds were added in the desired concentration to the culture medium to with spores. […] Inhibition of fungal growth was determined by comparing the absorbance values in wells containing the tested compound with the absorbance in control wells without tested compound.

Botrytis cinerea = experiment: Example H: comparative data, in vivo preventive test on Botrytis cinerea (grey mould), gherkin; settings: rate of application 500 ppm, evaluated 4 to 5 days after inoculation
Leptnosphaeria nodorum [5] = experiment: Example I: comparative data, Leptnosphaeria nodorum in vitro cell test; assay type: cell-based; settings: rate of application 4 ppm; 6 days incubation
Ustilago avenae = experiment: Example J: comparative data, Ustilago avenae in vitro cell test; assay type: cell-based; settings: rate of application 20 ppm; 4 days incubation
[6] = HPLC on reversed phase columns, method [a]: acidic range
[7] = logP, HPLC on reversed phase columns, method [a]: acidic range
[8] = LogP, method [a] / Method A: LC-UV, acidic range
[9] = 20 ppm of active ingredient, 6 days incubation

Compound	inhibition at 20 ppm (Pyricularia oryzae) [%]	chromatographic logP [3, 7]	chromatographic logP [3, 8]	also measured
CC(C)n1ccc(-c2c(F)cccc2Nc2cnc3ccccc3c2)n1 [Example I-027]	90 to 100			inhibition at 20 ppm (Leptnosphaeria nodorum [1]): 80 to 89%; Efficacy in % [2]: 65%; logP [3, 6]: 4.05 ^[a]
Cc1nc2c(F)c(F)ccc2cc1Nc1ccccc1-c1ccn(C(C)C)n1 [Example I-043, 7,8-difluoro-N-[2-(1-isopropylpyrazol-3-yl)phenyl]-2-methyl-quinolin-3-amine]	90 to 100	5		inhibition at 20 ppm (Leptnosphaeria nodorum [1]): 80 to 89%
Cc1nc2c(F)c(F)ccc2cc1N(C)c1ccccc1-c1ccn(C(C)C)n1 [Example I-046, 7,8-difluoro-N-[2-(1-isopropylpyrazol-3-yl)phenyl]-N,2-dimethyl-quinolin-3-amine]	80 to 89	4.36	4.36	
Cc1nc2c(F)c(F)ccc2cc1Nc1cccc(F)c1-c1ccnn1C [Example I-050, 7,8-difluoro-N-[3-fluoro-2-(1-methyl-1H-pyrazol-5-yl)phenyl]-2-methylquinolin-3-amine]	90 to 100	3.09	3.07	inhibition at 20 ppm (Leptnosphaeria nodorum [1]; [9]): 90 to 100%; inhibition at 20 ppm [4, 9]: 90 to 100%
CC(C)(O)c1ccnn1-c1ccccc1Nc1cnc2ccccc2c1 [Example I-063]		1.79		Efficacy in % (Septoria tritici): 96%
COC(=O)c1ccnn1-c1ccccc1Nc1cnc2ccccc2c1 [Example I-064, methyl 1-[2-(quinolin-3-ylamino)phenyl]-1H-pyrazole-5-carboxylate]		2.02	2.02	inhibition at 20 ppm (Leptnosphaeria nodorum [1]; [9]): 70 to 79%; inhibition at 20 ppm [4, 9]: 80 to 89%
C=C(C)c1ccnn1-c1ccccc1Nc1cnc2ccccc2c1 [Example I-066]	90 to 100	2.73		inhibition at 20 ppm (Leptnosphaeria nodorum [1]): 90 to 100%; inhibition at 20 ppm [4]: 80 to 89%; Efficacy in % (Botrytis cinerea): 98%; Efficacy in % (Leptnosphaeria nodorum [5]): 94%; Efficacy in % (Ustilago avenae): 63%
CC(C)n1ccc(-c2c(F)cccc2Nc2cnc3ccccc3c2)n1 [Example I-067]				Efficacy in % (Botrytis cinerea): 95%; logP [3, 6]: 1.94 ^[a]
CC(C)(C)[Si](C)(C)OCc1ccnn1-c1ccccc1Nc1cnc2ccccc2c1 [Example I-069, N-{2-[5-({[tert-butyl(dimethyl)silyl]oxy}methyl)-1H-pyrazol-1-yl]phenyl}quinolin-3-amine]		4.92	4.92	inhibition at 20 ppm (Leptnosphaeria nodorum [1]; [9]): 80 to 89%
CCn1nccc1-c1ccccc1Nc1cnc2c(F)cccc2c1 [Example I-080, N-[2-(1-ethyl-1H-pyrazol-5-yl)phenyl]-8-fluoroquinolin-3-amine]	80 to 89	2.84	2.82	inhibition at 20 ppm (Leptnosphaeria nodorum [1]; [9]): 90 to 100%; inhibition at 20 ppm [4, 9]: 90 to 100%
Cc1nc2ccccc2nc1Nc1cccc(F)c1-c1ccnn1C [Example I-083, N-[3-fluoro-2-(1-methyl-1H-pyrazol-5-yl)phenyl]-3-methylquinoxalin-2-amine]	90 to 100	2.82	2.82	inhibition at 20 ppm (Leptnosphaeria nodorum [1]; [9]): 90 to 100%; inhibition at 20 ppm [4, 9]: 90 to 100%
Fc1cccc2cc(Nc3ccccc3-c3ccnn3Cc3ccccc3)cnc12 [Example I-096, N-[2-(1-benzyl-1H-pyrazol-5-yl)phenyl]-8-fluoroquinolin-3-amine]	90 to 100	3.49	3.49	inhibition at 20 ppm (Leptnosphaeria nodorum [1]; [9]): 90 to 100%; inhibition at 20 ppm [4, 9]: 90 to 100%
CC(C)(C)OC(=O)N(c1cnc2ccccc2c1)c1ccccc1-n1nccc1C=O [XX-06, tert-butyl [2-(5-formyl-1H-pyrazol-1-yl)phenyl]quinolin-3-ylcarbamate]			3.06	
CC(C)(C)OC(=O)N(c1cnc2ccccc2c1)c1ccccc1-n1nccc1CO[Si](C)(C)C(C)(C)C [XX-07, tert-butyl {2-[5-({[tert-butyl(dimethyl)silyl]oxy}methyl)-1H-pyrazol-1-yl]phenyl}quinolin-3-ylcarbamate]			5.84	
CC(C)(C)OC(=O)N(c1cnc2ccccc2c1)c1cccc(F)c1-n1nccc1CO [XX-08, tert-butyl {3-fluoro-2-[5-(hydroxymethyl)-1H-pyrazol-1-yl]phenyl}quinolin-3-ylcarbamate]			2.47	
CC(C)(C)OC(=O)N(c1cnc2ccccc2c1)c1cccc(F)c1-n1nccc1CO[Si](C)(C)C(C)(C)C [XX-09, tert-butyl {2-[5-({[tert-butyl(dimethyl)silyl]oxy}methyl)-1H-pyrazol-1-yl]-3-fluorophenyl}quinolin-3-ylcarbamate]			5.8	
CC(C)(C)OC(=O)N(c1cnc2ccccc2c1)c1cccc(F)c1-n1nccc1C=O [XX-10, tert-butyl [3-fluoro-2-(5-formyl-1H-pyrazol-1-yl)phenyl]quinolin-3-ylcarbamate]			3.24	
CC(C)(C)OC(=O)N(c1cnc2ccccc2c1)c1cccc(F)c1-n1nccc1C(C)(C)O [XX-11, tert-butyl {3-fluoro-2-[5-(2-hydroxypropan-2-yl)-1H-pyrazol-1-yl]phenyl}quinolin-3-ylcarbamate]			3.33	
CC(C)(C)OC(=O)N(c1cnc2ccccc2c1)c1ccccc1-n1nccc1CO [XX-12, tert-butyl {2-[5-(hydroxymethyl)-1H-pyrazol-1-yl]phenyl}quinolin-3-ylcarbamate]			2.35	
C=C(C)c1ccnn1-c1ccccc1Oc1cnc2ccccc2c1 [drawing 46, reference compound]				Efficacy in % (Botrytis cinerea): 20%
CC(C)n1ccc(-c2c(F)cccc2Oc2cnc3ccccc3c2)n1 [drawing 47, reference compound]				Efficacy in % (Botrytis cinerea): 68%
C=C(C)c1ccnn1-c1ccccc1Oc1cnc2ccccc2c1 [drawing 50, reference compound]				Efficacy in % (Leptnosphaeria nodorum [5]): 64%
C=C(C)c1ccnn1-c1ccccc1Oc1cnc2ccccc2c1 [drawing 52, reference compound]				Efficacy in % (Ustilago avenae): 1%
CC(C)n1ccc(-c2c(F)cccc2Oc2cnc3ccccc3c2)n1 [drawing 54, reference compound]				Efficacy in % [2]: 0%
CC(C)(O)c1ccnn1-c1ccccc1Oc1cnc2ccccc2c1 [reference compound]				Efficacy in % (Septoria tritici): 0%
